Assay results as given in patent publication US20090162286A1, “Phosphodiesterase 10 Inhibition as Treatment for Obesity-Related and Metabolic Syndrome-Related Conditions” (Pfizer Inc., priority 2004, published 2009).

How the values were obtained:
[1] = Body weight and food intake in diet-induced obese (DIO) mice; assay type: in vivo, mouse; settings: 15 mg/kg twice daily po
Procedure: Mice were individually housed and divided into two groups: a group of control mice which remained on Purina 5001 chow; and another group which was switched to a diet composed of 45 kcal % fat (D12331 Rodent Diet, Research Diets, Inc., New Brunswick, N.J.) for the duration of the 6 week study. Food intake was measured on a 24-hour, 5 days/week cycle (Monday-Friday). Body weight was determined on Day 0 and thereafter at the same time that food intake was measured. For testing the effects of a PDE10 inhibitor on body weight and oxygen consumption, a mouse model of diet-induced obesity (DIO) was used. Obesity was induced in the mice by maintaining them on a 45% fat diet for more than 14 weeks. DIO mice were treated with Compound IVA at a dose of 15 mg/kg, administered twice daily (p.o.) for 14 days. Control mice were administered a vehicle of 0.5% methylcellulose. Measurements were made as previously described. DIO mice were treated with Compound IVA at a dose of 15 mg/kg administered twice daily (po). Control mice were administered the vehicle, 0.5% methylcellulose. […] Oxygen consumption was determined in the Compound IV and vehicle treated mice at the end of the study.

[2] = Oxygen consumption in diet-induced obese (DIO) mice; assay type: in vivo, mouse; settings: 15 mg/kg twice daily po, at the end of the study, vs vehicle
Procedure: Following determination of body composition, energy expenditure and oxygen consumption were determined using an Oxymax system (Columbus Instruments, Columbus, Ohio). Mice were housed under standard laboratory conditions and maintained on the experimental diet. Mice were acclimated to sealed chambers (8″×4″×5.5″) of the calorimeter (one mouse per chamber). The chambers were placed in activity monitors. The calorimeter was calibrated before each use, airflow was adjusted to 1.6 liters/min, and the system setting and sampling times were set to 60 seconds and 15 seconds, respectively. Oxygen consumption, carbon dioxide production, and ambulatory activity were measured every 10 minutes for a period of 4 hours. For testing the effects of a PDE10 inhibitor on body weight and oxygen consumption, a mouse model of diet-induced obesity (DIO) was used. Obesity was induced in the mice by maintaining them on a 45% fat diet for more than 14 weeks. DIO mice were treated with Compound IVA at a dose of 15 mg/kg, administered twice daily (p.o.) for 14 days. Control mice were administered a vehicle of 0.5% methylcellulose. Measurements were made as previously described. DIO mice were treated with Compound IVA at a dose of 15 mg/kg administered twice daily (po). […] Oxygen consumption was determined in the Compound IV and vehicle treated mice at the end of the study.

[3] = Obesity Food Intake Model - Fasted-Induced Feeding Assay; assay type: in vivo, rat; settings: fasted male CD rats; for effect on food intake (fasting-induced refeeding): 10 mg/kg, given 30 minutes prior to return of food, vs vehicle-treated control; for fasting-induced refeeding, dose dependence: Compound IIA 0.1, 1, 10 mg/kg, Compound IIIA 1, 3, 10, 32 mg/kg, comparator rimonabant 3 mg/kg
Procedure: PDE10 inhibitors were also tested for efficacy in reducing the acute re-feeding response following food withdrawal. Male CD rats were fasted overnight. Rats were administered a PDE10 inhibitor (Compound IIA and IIIA in separate tests) 30 minutes prior to the return of food. Food consumption was monitored and weighed at predetermined time points and the effect of PDE10 inhibitors were compared to vehicle-treated control rats.
Compound IIA, Compound IIIA and rimonabant were tested in the fasted-induced feeding assay described above. Compound IIA was tested at 10 mg/kg, 1 mg/kg and 0.1 mg/kg; Compound IIIA was tested at 32 mg/kg, 10 mg/kg, 3 mg/kg and 1 mg/kg; and rimonabant was tested at 3 mg/kg. Both Compound IIA and Compound IIIA were efficacious at 10 mg/kg.

c1ccc2nc(COc3ccc(-c4[nH]ncc4-c4ccncc4)cc3)ccc2c1 [Compound IVA, 2-[4-(4-Pyridin-4-yl-2H-pyrazol-3-yl)-phenoxymethyl]-quinoline]
body weight change ([1]; 14 days, vs vehicle 0.5% methylcellulose): led to weight loss | onset of weight loss ([1]; apparent on the 4th day): after three days treatment | food intake ([1]; vs vehicle 0.5% methylcellulose): small reduction in food intake | oxygen consumption [2]: slight non-significant increase in oxygen consumption

COc1cc2nc(N3CCNCC3)nc(-c3ccccc3F)c2cc1OC [Compound IIIA, 4-(2-Fluorophenyl)-6,7-dimethoxy-2-piperazin-1-yl-quinazoline]
effect on food intake (fasting-induced refeeding) [3]: efficacious | fasting-induced refeeding, dose dependence [3]: reduce fasting-induced refeeding in the rats in a dose dependent fashion

COc1cc2ncnc(N3CC[C@@H](Oc4cnc5ccccc5n4)C3)c2cc1OC (stereo in doubt) [Compound IIA, 6,7-Dimethoxy-4-[3-(quinoxalin-2-yloxy)-pyrrolidin-1-yl]-quinazoline]
effect on food intake (fasting-induced refeeding) [3]: efficacious | fasting-induced refeeding, dose dependence [3]: reduce fasting-induced refeeding in the rats in a dose dependent fashion
